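96-well plates; 48 h exposure; 5 concentrations. Endpoints by linear interpolation between flanking doses. Not reached: highest tested concentration assigned. The concentration for 50% growth inhibition is given as GI50.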 Calls of active or inactive are those of the source. Rule as the data show it: active = GI50 up to about 1.1 µM and inactive = higher.

From ChEMBL document CHEMBL1201862, “PubChem BioAssay data set” (2004) come the findings set out here.

Test systems include DU-145; MDA-N; SK-OV-3; SK-MEL-28; Malme-3M; UO-31; K562; A549; HCC 2998; SW-620; SF-268; HOP-92; CCRF-CEM; NCI-H522; SK-MEL-5; NCI/ADR-RES; SF-539; TK-10; BT-549; ACHN.
Experiment in all cases: NCI tumour cell line growth inhibition, 48 h

Regarding `C=C1C(=O)O[C@@H]2[C@H]1C[C@H](I)[C@@]1(C)CC[C@H](O1)[C@](C)(I)CCCC(C)[C@@H]2O` (stereo not given in full), the GI50 with DU-145 was 6.19 µM (inactive); in the assay with MDA-N it was 2.7 µM (inactive); in the assay on SK-OV-3, 16.6 µM (inactive); in the assay with SK-MEL-28, 6.11 µM (inactive); in the assay on Malme-3M, 2.48 µM (inactive); in the assay with UO-31, 3.66 µM (inactive). The GI50 in the assay with K562 was 2.37 µM (inactive); in the assay on A549 it was 9.79 µM (inactive); with HCC 2998, 12.2 µM (inactive); in the assay with SW-620, 1.81 µM (inactive); in the assay with SF-268, 12.6 µM (inactive); with HOP-92 it was 1.54 µM (inactive). Moreover, the GI50 was 0.384 µM (active) with CCRF-CEM; 0.311 µM (active) with NCI-H522; 3.29 µM (inactive) in the assay with SK-MEL-5; 3.17 µM (inactive) in the assay with NCI/ADR-RES; 2.02 µM (inactive) with SF-539; 1.75 µM (inactive) in the assay with TK-10. Also, the GI50 was 7.23 µM (inactive) with BT-549 and 1.79 µM (inactive) with ACHN.

Consider `C/C(=N/NC(=S)Nc1ccccc1Cl)c1ccccn1`, for which the GI50 was 1.06 µM (active) in the assay on DU-145; 0.452 µM (active) in the assay with MDA-N; 0.043 µM (active) with SK-OV-3; 4.06 µM (inactive) in the assay on SK-MEL-28; 0.429 µM (active) in the assay on Malme-3M; 0.583 µM (active) in the assay with UO-31. Also, the GI50 in the assay with K562 was < 0.01 µM (active); in the assay on A549, 0.0582 µM (active); in the assay with HCC 2998 it was 2.98 µM (inactive); in the assay on SW-620, < 0.0168 µM (active); in the assay on SF-268 it was 0.0843 µM (active); with HOP-92, 1.03 µM (active). The GI50 is < 0.01 µM (active) in the assay with CCRF-CEM; 1.11 µM (active) with NCI-H522; 0.0753 µM (active) with SK-MEL-5; 0.0914 µM (active) in the assay on NCI/ADR-RES; 1.11 µM (active) in the assay on SF-539; 0.113 µM (active) in the assay on TK-10. Besides, the figures for the GI50 in the assay with BT-549 and with ACHN were 4.39 µM (inactive) and 0.0402 µM (active), respectively.

Regarding `CC1CNC(c2cccc(OCc3ccc(COc4cccc(C5=NC(C)CN5)c4)cc3)c2)=N1` (stereo not given), the GI50 in the assay with DU-145 was 50.8 µM (inactive); in the assay with MDA-N, 38.6 µM (inactive); in the assay with SK-OV-3 it was > 100 µM (inactive); in the assay on SK-MEL-28, 61.7 µM (inactive); in the assay on Malme-3M it was 58.5 µM (inactive); in the assay with UO-31, > 100 µM (inactive). Further, the GI50 is 5.7 µM (inactive) with K562; 40.6 µM (inactive) in the assay with A549; 24 µM (inactive) in the assay with HCC 2998; 42.6 µM (inactive) in the assay with SW-620; 35.6 µM (inactive) in the assay with SF-268; > 100 µM (inactive) in the assay with HOP-92. For the same molecule, the GI50 with CCRF-CEM was 18.9 µM (inactive); with NCI-H522, 23 µM (inactive); with SK-MEL-5 it was 22.9 µM (inactive); with NCI/ADR-RES it was > 100 µM (inactive); with SF-539, 16.3 µM (inactive); in the assay on TK-10, 27.1 µM (inactive). The GI50 with BT-549 was 61.5 µM (inactive); in the assay with ACHN, > 100 µM (inactive).

Take `CCCSc1ccc2[nH]c(N3C(=O)/C(=C/c4ccc(SC)cc4)N=C3c3ccccc3)cc2c1`: the GI50 is > 50 µM (inactive) in the assay with DU-145; 6.56 µM (inactive) in the assay with MDA-N; 41.5 µM (inactive) in the assay on SK-OV-3; 34.3 µM (inactive) in the assay on SK-MEL-28; 40.6 µM (inactive) in the assay with Malme-3M; > 35.8 µM (inactive) in the assay on UO-31. Besides, the GI50 is 0.355 µM (active) in the assay on K562; 19.5 µM (inactive) with A549; 14.1 µM (inactive) in the assay with HCC 2998; 18.5 µM (inactive) in the assay with SW-620; 29.8 µM (inactive) in the assay on SF-268; > 50 µM (inactive) in the assay on HOP-92. Besides, the GI50 was 13.5 µM (inactive) with CCRF-CEM; 16.1 µM (inactive) in the assay on NCI-H522; 10.7 µM (inactive) in the assay with SK-MEL-5; > 33 µM (inactive) with NCI/ADR-RES; 14 µM (inactive) in the assay on SF-539; 29 µM (inactive) in the assay with TK-10. The GI50 was > 38.7 µM (inactive) with BT-549 and > 50 µM (inactive) in the assay on ACHN.

In the case of `COc1cc(OCc2ccccc2)c2c(CCC(=O)O)cc(=O)oc2c1.COc1cc(OCc2ccccc2)cc2oc(=O)cc(CCC(=O)O)c12`, the GI50 in the assay on DU-145 is 64.6 µM (inactive); in the assay with MDA-N, > 100 µM (inactive); in the assay on SK-OV-3 it was 82.4 µM (inactive); in the assay on SK-MEL-28, 42.3 µM (inactive); in the assay on Malme-3M, > 100 µM (inactive); in the assay with UO-31, 43.4 µM (inactive). In addition, the GI50 with K562 is 49 µM (inactive); with A549, 43.3 µM (inactive); in the assay with HCC 2998, 56.5 µM (inactive); in the assay on SW-620, > 100 µM (inactive); in the assay on SF-268, 61 µM (inactive); in the assay on HOP-92, 32 µM (inactive). Moreover, the GI50 in the assay with CCRF-CEM was 36.7 µM (inactive); in the assay on NCI-H522, 42.5 µM (inactive); with SK-MEL-5 it was 70.6 µM (inactive); in the assay with NCI/ADR-RES, 52.7 µM (inactive); in the assay on SF-539, 71.6 µM (inactive); with TK-10, 31.6 µM (inactive). Besides, the GI50 is 57.5 µM (inactive) in the assay with BT-549 and 37.5 µM (inactive) in the assay with ACHN.

For the molecule `CC(O)CN1c2ccccc2Sc2ccc(Cl)cc21` (stereo not given), the GI50 in the assay with DU-145, with MDA-N, in the assay on SK-OV-3, with SK-MEL-28, with Malme-3M and in the assay on UO-31 was > 10 µM (inactive) each time. Also, the GI50 with K562, in the assay with A549, in the assay on HCC 2998, in the assay with SW-620, in the assay with SF-268 and in the assay with HOP-92 was > 10 µM (inactive) each time. In addition, the GI50 in the assay with CCRF-CEM, in the assay on NCI-H522, in the assay with SK-MEL-5, with NCI/ADR-RES, in the assay on SF-539 and in the assay on TK-10 was > 10 µM (inactive) in each case. Besides, the GI50 with BT-549 and with ACHN was > 10 µM (inactive) in each case.

With `Cc1ccc(N2CCC3(CC2)OCCO3)cc1`, the GI50 in the assay on DU-145, with MDA-N, in the assay with SK-OV-3, in the assay on SK-MEL-28, with Malme-3M and in the assay on UO-31 was > 100 µM (inactive) throughout. For the same molecule, the GI50 in the assay with K562, with A549, in the assay with HCC 2998, in the assay on SW-620, with SF-268 and with HOP-92 was > 100 µM (inactive) in each case. In addition, the GI50 in the assay with CCRF-CEM, with NCI-H522, in the assay on SK-MEL-5, in the assay with NCI/ADR-RES, with SF-539 and with TK-10 was > 100 µM (inactive) throughout. For the same molecule, the GI50 with BT-549 and in the assay with ACHN was > 100 µM (inactive) in each case.
